EC50 data for 39 compounds are collected here from patent US20240101531A1, “PYRIDINAMINE DERIVATIVES AND THEIR USE AS POTASSIUM CHANNEL MODULATORS” (Xenon Pharmaceuticals Inc., priority 2022, published 2024).

In this assay the target is human KV7.2/KV7.3 (Homo sapiens (Human), UniProt O43525+O43526). Nature of the assay: Potassium flux assay (IPG-2 AM dye). The assay is classed as cell-based. The following applies: TREX HEK 293 or HEK 293 cells expressing human KV7.2/KV7.3; arithmetic mean values. The method in brief: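 HEK 293 or TREX HEK 293 cells stably expressing human KV7.2/KV7.3 (tetracycline-induced where needed), loaded with IPG-2 AM, then compound for 20 min at room temperature. Flux triggered by K challenge buffer (10 mM KCl, pH 7.4), read at 530/558 nm; EC50 from 16-point 2-fold series from 30 μM, normalised to DMSO and reference modulator.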

Counter-ions that a name gives are not always drawn.

For orientation: EC50 means the concentration needed to bring the measured effect to its halfway point. With `Cc1ccc(Nc2nccc3cc(OCc4ccncc4)ccc23)cn1` [Example 200, N-(6-methylpyridin-3-yl)-6-(pyridin-4-ylmethoxy)isoquinolin-1-amine], the EC50 was 1000 to 10000 nM.

Turning to `Clc1ccc(Nc2nccc3cc(OC4CCN(Cc5ncccn5)CC4)ccc23)cn1` [Example 314, N-(6-chloropyridin-3-yl)-6-((1-(pyrimidin-2-ylmethyl)piperidin-4-yl)oxy)isoquinolin-1-amine], the EC50 lay within 1000 to 10000 nM.

For `Clc1ccc(Nc2nccc3cc(OCc4ccncc4)ccc23)cn1` [Example 192, N-(6-chloropyridin-3-yl)-6-(pyridin-4-ylmethoxy)isoquinolin-1-amine], the EC50 was below 1000 nM.

Consider `FC(F)(F)CN1CC(COc2ccc3c(Nc4ccc(Cl)nc4)nccc3c2)C1` [Example 310, N-(6-chloropyridin-3-yl)-6-((1-(2,2,2-trifluoroethyl)azetidin-3-yl)methoxy)isoquinolin-1-amine], for which the EC50 lay in the range of 1000 to 10000 nM.

Regarding `CS(C)(=O)=Nc1ccc2c(Nc3ccc(Cl)nc3)nccc2c1` [Example 34, ((1-((6-chloropyridin-3-yl)amino)isoquinolin-6-yl)imino)dimethyl-λ^6-sulfanone], the EC50 lay within 1000 to 10000 nM.

Turning to `N#CC1(COc2cnc3c(Nc4cnc(Cl)nc4)nccc3c2)CC1` [Example 254, 1-(((8-((2-chloropyrimidin-5-yl)amino)-1,7-naphthyridin-3-yl)oxy)methyl)cyclopropane-1-carbonitrile], the EC50 was below 1000 nM.

For the compound `Cc1ncsc1C(=O)N[C@H]1CC[C@@H](Oc2ccc3c(Nc4ccc(Cl)nc4)nccc3c2)CC1` [Example 167, N-((1s,4s)-4-((1-((6-chloropyridin-3-yl)amino)isoquinolin-6-yl)oxy)cyclohexyl)-4-methylthiazole-5-carboxamide], the EC50 lay in the range of 1000 to 10000 nM.

On to `COC(=O)C1COCCN1CCOc1ccc2c(Nc3ccc(Cl)nc3)nccc2c1` (stereo not drawn) [Example 320, methyl 4-(2-((1-((6-chloropyridin-3-yl)amino)isoquinolin-6-yl)oxy)ethyl)morpholine-3-carboxylate], for which the EC50 lay within 1000 to 10000 nM.

With `CN(Cc1ccc2c(Nc3ccc(Cl)nc3)nccc2c1)c1cn[nH]c1` [Example 250, N-(6-chloropyridin-3-yl)-6-((methyl(1H-pyrazol-4-yl)amino)methyl)isoquinolin-1-amine], the EC50 was below 1000 nM.

Consider `Cc1ncc(Nc2nccc3cc(OCc4cn[nH]c4)ccc23)cn1` [Example 395, 6-((1H-pyrazol-4-yl)methoxy)-N-(2-methylpyrimidin-5-yl)isoquinolin-1-amine], for which the EC50 is 1000 to 10000 nM.

Regarding `Clc1ccc(Nc2nccc3cc(-c4cncnc4)ccc23)cn1` [Example 423, N-(6-chloropyridin-3-yl)-6-(pyrimidin-5-yl)isoquinolin-1-amine], the EC50 lay within 10000 to 30000 nM.

As to `O[C@H]1CC[C@@H](Oc2ccc3c(Nc4ccc(Cl)nc4)nccc3c2)CC1` [Example 100, Cis-4-((1-((6-chloropyridin-3-yl)amino)isoquinolin-6-yl)oxy)cyclohexan-1-ol], the EC50 was below 1000 nM.

On to `COC1(COc2ccc3c(Nc4cnc(C)nc4)nccc3c2)CC1` [Example 178, 6-((1-methoxycyclopropyl)methoxy)-N-(2-methylpyrimidin-5-yl)isoquinolin-1-amine], for which the EC50 was in the range of 1000 to 10000 nM.

As for `O[C@H]1CC[C@H](Oc2ccc3c(Nc4ccc(Cl)nc4)nccc3c2)CC1` [Example 350, (1r,4r)-4-((1-((6-chloropyridin-3-yl)amino)isoquinolin-6-yl)oxy)cyclohexan-1-ol], the EC50 lay in the range of 1000 to 10000 nM.

Regarding `C[C@]1(COc2ccc3c(Nc4ccc(Cl)nc4)nccc3c2)CCCO1` [Example 302, (R)—N-(6-chloropyridin-3-yl)-6-((2-methyltetrahydrofuran-2-yl)methoxy)isoquinolin-1-amine], the EC50 fell in the range of 1000 to 10000 nM.

In the case of `N#CC1(COc2ccc3c(Nc4ccc(Cl)nc4)nccc3c2)CC2(COC2)C1` [Example 333, 6-(((1-((6-chloropyridin-3-yl)amino)isoquinolin-6-yl)oxy)methyl)-2-oxaspiro[3.3]heptane-6-carbonitrile], the EC50 was below 1000 nM.

Turning to `Cc1ncc(Nc2nccc3cc(OCC4(F)COC4)ccc23)cn1` [Example 57, 6-((3-fluorooxetan-3-yl)methoxy)-N-(2-methylpyrimidin-5-yl)isoquinolin-1-amine], the EC50 is 1000 to 10000 nM.

Turning to `Clc1ccc(Nc2nccc3cc(O[C@H]4CCOC4)ccc23)cn1` [Example 298, (S)-N-(6-chloropyridin-3-yl)-6-((tetrahydrofuran-3-yl)oxy)isoquinolin-1-amine trifluoroacetate], the EC50 lay in the range of 1000 to 10000 nM.

`C[C@@]1(COc2ccc3c(Nc4ccc(Cl)nc4)nccc3c2)CCCO1` [Example 303, (S)—N-(6-chloropyridin-3-yl)-6-((2-methyltetrahydrofuran-2-yl)methoxy)isoquinolin-1-amine]: the EC50 is 1000 to 10000 nM.

Turning to `Cn1cnc(COc2ccc3c(Nc4ccc(Cl)nc4)nccc3c2)n1` [Example 307, N-(6-chloropyridin-3-yl)-6-((1-methyl-1H-1,2,4-triazol-3-yl)methoxy)isoquinolin-1-amine], the EC50 fell in the range of 1000 to 10000 nM.

As to `O[C@@H]1CCC[C@@H](Oc2ccc3c(Nc4ccc(Cl)nc4)nccc3c2)C1` (relative stereo) [Example 354, trans-3-((1-((6-chloropyridin-3-yl)amino)isoquinolin-6-yl)oxy)cyclohexan-1-ol], the EC50 is below 1000 nM.

`COCCOCCOc1ccc2c(Nc3ccc(Cl)nc3)nccc2c1` [Example 236, N-(6-chloropyridin-3-yl)-6-(2-(2-methoxyethoxy)ethoxy)isoquinolin-1-amine]: the EC50 was 1000 to 10000 nM.

Turning to `Clc1ccc(Nc2nccc3cc(Cc4ccccn4)ccc23)cn1` [Example 426, N-(6-chloropyridin-3-yl)-6-(pyridin-2-ylmethyl)isoquinolin-1-amine], the EC50 lay in the range of 1000 to 10000 nM.

Regarding `Cc1ncc(Nc2nccc3cc(OCc4c[nH]nc4C)ccc23)cn1` [Example 396, 6-((3-methyl-1H-pyrazol-4-yl)methoxy)-N-(2-methylpyrimidin-5-yl)isoquinolin-1-amine], the EC50 is below 1000 nM.

`O[C@]1(C(F)(F)F)CCC[C@H](Oc2ccc3c(Nc4cnc(Cl)nc4)nccc3c2)C1` (racemic) [Example 145, rac-(1R,3S)-3-((1-((2-chloropyrimidin-5-yl)amino)isoquinolin-6-yl)oxy)-1-(trifluoromethyl)cyclohexan-1-ol]: the EC50 was below 1000 nM.

`Clc1ncc(Nc2nccc3cc(OC[C@@H]4COCCO4)ccc23)cn1` [Example 383, (S)-6-((1,4-dioxan-2-yl)methoxy)-N-(2-chloropyrimidin-5-yl)isoquinolin-1-amine]: the EC50 was below 1000 nM.

Take `Clc1ccc(Nc2nccc3cc(O[C@@H]4CCOC4)ccc23)cn1` [Example 297, (R)-N-(6-chloropyridin-3-yl)-6-((tetrahydrofuran-3-yl)oxy)isoquinolin-1-amine trifluoroacetate]: the EC50 was below 1000 nM.

As to `Clc1ccc(Nc2nccc3cc(OCC4COC4)ccc23)cn1` [Example 223, N-(6-chloropyridin-3-yl)-6-(oxetan-3-ylmethoxy)isoquinolin-1-amine], the EC50 is below 1000 nM.

As to `CC(CN1CCOCC1)Oc1ccc2c(Nc3ccc(Cl)nc3)nccc2c1` (stereo not drawn) [Example 109, N-(6-chloropyridin-3-yl)-6-((1-morpholinopropan-2-yl)oxy)isoquinolin-1-amine], the EC50 was in the range of 1000 to 10000 nM.

On to `O[C@@H]1CCC[C@H](Oc2ccc3c(Nc4ccc(Cl)nc4)nccc3c2)C1` [Example 346, (1R,3S)-3-((1-((6-chloropyridin-3-yl)amino)isoquinolin-6-yl)oxy)cyclohexan-1-ol], for which the EC50 was below 1000 nM.

Turning to `N#CC1(COc2ccc3c(Nc4cnc(Cl)nc4)nccc3c2)COC1` [Example 208, 3-(((1-((2-chloropyrimidin-5-yl)amino)isoquinolin-6-yl)oxy)methyl)oxetane-3-carbonitrile], the EC50 is below 1000 nM.

Turning to `CS(=O)(=O)N1CCC(Oc2ccc3c(Nc4ccc(Cl)nc4)nccc3c2)CC1` [Example 118, N-(6-chloropyridin-3-yl)-6-((1-(methylsulfonyl)piperidin-4-yl)oxy)isoquinolin-1-amine], the EC50 fell in the range of 1000 to 10000 nM.

Turning to `CO[C@H]1CC[C@@H](Oc2ccc3c(Nc4ccc(Cl)nc4)nccc3c2)CC1` [Example 104, N-(6-chloropyridin-3-yl)-6-(((1s,4s)-4-methoxycyclohexyl)oxy)isoquinolin-1-amine], the EC50 lay within 10000 to 30000 nM.

`Clc1ccc(Nc2nccc3cc(OCCn4ccnc4)ccc23)cn1` [Example 74, 6-(2-(1H-imidazol-1-yl)ethoxy)-N-(6-chloropyridin-3-yl)isoquinolin-1-amine]: the half-maximal effective concentration (EC50) was at least 30000 nM.

In the case of `Clc1ccc2c(Nc3ccc(Cl)nc3)nccc2c1` [Example 21, 6-chloro-N-(6-chloropyridin-3-yl)isoquinolin-1-amine], the EC50 was in the range of 10000 to 30000 nM.

As to `COc1cc(Nc2nccc3cc(OCc4cnn(C)c4)ccc23)cnc1Cl` [Example 54, N-(6-chloro-5-methoxypyridin-3-yl)-6-((1-methyl-1H-pyrazol-4-yl)methoxy)isoquinolin-1-amine], the EC50 is below 1000 nM.

With `CS(=O)(=Nc1ccc2c(Nc3ccc(Cl)nc3)nccc2c1)C1CCOCC1` (stereo not drawn) [Example 270, ((1-((6-chloropyridin-3-yl)amino)isoquinolin-6-yl)imino)(methyl)(tetrahydro-2H-pyran-4-yl)-λ^6-sulfanone], the EC50 lay in the range of 1000 to 10000 nM.

Regarding `CC(C)C1(COc2ccc3c(Nc4ccc(Cl)nc4)nccc3c2)COC1` [Example 152, N-(6-chloropyridin-3-yl)-6-((3-isopropyloxetan-3-yl)methoxy)isoquinolin-1-amine], the EC50 is below 1000 nM.

As for `Clc1ccc(Nc2nccc3cc(OCCn4cccn4)ccc23)cn1` [Example 120, 6-(2-(1H-pyrazol-1-yl)ethoxy)-N-(6-chloropyridin-3-yl)isoquinolin-1-amine], the EC50 is 10000 to 30000 nM.
